From ChEMBL document CHEMBL2331127, “3D-QSAR and docking studies of pentacycloundecylamines at the sigma-1 (σ1) receptor” (Bioorg Med Chem Lett, 2013)

biological target: Sigma non-opioid intracellular receptor 1 (Cavia porcellus, UniProt Q60492); experiment: Displacement of [3H](+)-pentazocine from sigma-1 receptor in guinea pig brain
Sequence (Q60492 whole entry): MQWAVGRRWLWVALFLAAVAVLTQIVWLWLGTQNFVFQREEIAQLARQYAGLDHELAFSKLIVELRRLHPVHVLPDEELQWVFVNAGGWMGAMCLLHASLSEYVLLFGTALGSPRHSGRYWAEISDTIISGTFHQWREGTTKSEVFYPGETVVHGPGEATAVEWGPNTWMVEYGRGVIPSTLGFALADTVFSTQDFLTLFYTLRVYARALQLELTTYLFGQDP

SMILES	Ki [nM]
O=[N+]([O-])c1cccc(CN2C3C4C5CC6C7C5C3C7C2(O)C64)c1 (stereo not drawn)	1100
OC12C3C4CC5C6C4C1C6C(C53)N2CCCCc1ccccc1 (stereo not drawn)	8.91
OC12C3C4CC5C6C4C1C6C(C53)N2Cc1ccc(F)cc1 (stereo not drawn)	107
OC12C3C4CC5C6C4C1C6C(C53)N2Cc1ccc(Br)cc1 (stereo not drawn)	85.1
OC12C3C4CC5C6C4C1C6C(C53)N2CCc1ccc(Cl)c(Cl)c1 (stereo not drawn)	10
OC12C3C4CC5C6C4C1C6C(C53)N2Cc1ccc(I)cc1 (stereo not drawn)	81.3
OC12C3C4CC5C6C4C1C6C(C53)N2Cc1cccc(Br)c1 (stereo not drawn)	209
Cc1cccc(CN2C3C4C5CC6C7C5C3C7C2(O)C64)c1 (stereo not drawn)	97.7
OC12C3C4CC5C6C4C1C6C(C53)N2Cc1cccc(I)c1 (stereo not drawn)	170
OC12C3C4CC5C6C4C1C6C(C53)N2CCCc1ccccc1 (stereo not drawn)	20.9
COc1ccc(CN2C3C4C5CC6C7C5C3C7C2(O)C64)cc1 (stereo not drawn)	102
OC12C3C4CC5C6C4C1C6C(C53)N2Cc1ccccc1 (stereo not drawn)	102
OC12C3C4CC5C6C4C1C6C(C53)N2CCc1ccccc1 (stereo not drawn)	20
OC12C3C4CC5C6C4C1C6C(C53)N2Cc1cccc(C(F)(F)F)c1 (stereo not drawn)	269
OC12C3C4CC5C6C4C1C6C(C53)N2CCc1ccc(Br)cc1 (stereo not drawn)	10
OC12C3C4CC5C6C4C1C6C(C53)N2Cc1ccccc1F (stereo not drawn)	182
OC12C3C4CC5C6C4C1C6C(C53)N2Cc1ccc(F)c(F)c1 (stereo not drawn)	200
OC12C3C4CC5C6C4C1C6C(C53)N2Cc1cccc(Cl)c1 (stereo not drawn)	186
OC12C3C4CC5C6C4C1C6C(C53)N2CCc1cccc(F)c1 (stereo not drawn)	10
OC12C3C4CC5C6C4C1C6C(C53)N2CCc1cccc(Cl)c1 (stereo not drawn)	20.9
OC12C3C4CC5C6C4C1C6C(C53)N2Cc1cccc(F)c1 (stereo not drawn)	151

biological target: Sigma non-opioid intracellular receptor 1 (Rattus norvegicus, UniProt Q9R0C9); experiment: Displacement of [3H](+)-pentazocine from sigma-1 receptor in rat liver homogenate; format: tissue-based
Sequence (Q9R0C9 whole entry): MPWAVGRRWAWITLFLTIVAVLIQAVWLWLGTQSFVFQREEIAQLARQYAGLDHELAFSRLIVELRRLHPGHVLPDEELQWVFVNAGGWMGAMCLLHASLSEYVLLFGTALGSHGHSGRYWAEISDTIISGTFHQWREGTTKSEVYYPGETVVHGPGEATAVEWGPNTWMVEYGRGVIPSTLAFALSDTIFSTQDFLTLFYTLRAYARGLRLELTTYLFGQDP

SMILES	IC50 [nM]
c1ccc(CCNC23OC4C5C6CC(C7C6C4C72)C53)cc1 (stereo not drawn)	1540
c1ccc(CNC23OC4C5C6CC(C7C6C4C72)C53)cc1 (stereo not drawn)	1780
